We go through 26 compounds from PubChem BioAssay (NCI).

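Cultured in 96-well plates, cells were exposed to test compound for 48 hours across five concentrations. At the GI50, growth is halved. The concentration for full growth arrest is given as TGI.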

What all share (experiment): inhibition of tumour cell growth, NCI panel, 48 h
In experiment [1] the test system is SK-MEL-5 melanoma.
Experiment [2] concerns SNB-19 CNS.
The subject of experiment [3] is HOP-92 NSCLC.
Experiment [4] has as its system HCC-2998 colon.
In experiment [5] the test system is NCI-H522 lung.
In experiment [6] the test system is CAKI-1 renal.
For experiment [7], the system named is ACHN renal.
For experiment [8], the system named is EKVX NSCLC.
Experiment [9] concerns MDA-N.
Experiment [10] relates to SR leukemia.
For experiment [11], the system named is 786-0 renal.
In experiment [12] the test system is NCI/ADR-RES ovarian.

Take `CCOP(=O)(Cc1nc(C#N)c(N)o1)OCC`: the TGI in experiment [1], in experiment [2], in [3], in experiment [4], in experiment [5] and in experiment [6] was more than 100 µM in each case. Moreover, the TGI in experiment [7], in experiment [8], in experiment [9], in experiment [10] and in experiment [11] was more than 100 µM each time.

Take `O=S(=O)(O)c1cc(N=[N+]([O-])c2ccc(N=Nc3ccccc3)cc2S(=O)(=O)O)ccc1/C=C/c1ccc(N=[N+]([O-])c2ccc(N=Nc3ccccc3)cc2S(=O)(=O)O)cc1S(=O)(=O)O`: the TGI in [1], in experiment [12], in [2], in experiment [3], in [4] and in [5] was more than 100 µM throughout. The TGI in experiment [8] was more than 100 µM.

Consider `CCOC(=O)Cc1cc(=O)[nH]c(-n2[nH]c(C)c(CCO)c2=O)n1`, for which the TGI in experiment [1], in experiment [12], in experiment [2], in experiment [4], in experiment [5] and in [6] was more than 100 µM in each case. Besides, the TGI in experiment [7], in experiment [8], in experiment [9] and in [11] was more than 100 µM throughout.

Consider `O=[N+]([O-])c1ccc(Nc2cccc3c2[nH]c2c(-c4ccccc4)nccc23)c([N+](=O)[O-])c1`, for which the TGI in [1], in experiment [12], in [2], in [3], in [4] and in experiment [5] was more than 100 µM in each case. The same compound showed a TGI in experiment [8] of more than 100 µM.

On to `Cc1ccc(C)c2c1n1c(=O)n(C)c(=O)n21`, for which the TGI in experiment [1], in experiment [12], in experiment [2], in experiment [3], in experiment [4] and in experiment [5] was more than 100 µM each time. The TGI in experiment [6], in experiment [7], in [8], in [9] and in [11] was more than 100 µM each time.

Turning to `COc1ccc(/C=C(/c2ccc(OC)cc2)c2c(Cl)cc(Cl)c(/C(=C\c3ccc(OC)cc3)c3ccc(OC)cc3)c2N=Nc2ccccc2)cc1`, the TGI in [1], in experiment [12], in experiment [2], in experiment [3], in [4] and in experiment [5] was more than 100 µM throughout. For the same compound, the TGI in [6], in experiment [7], in experiment [8] and in [11] was more than 100 µM throughout.

As for `Cc1ccsc1/C=N/Nc1cc(C)c2ccccc2n1`, the TGI was 9 µM in experiment [1]; 31 µM in experiment [12]; 32.8 µM in experiment [2]; 28.1 µM in experiment [3]; 31.7 µM in experiment [4]; 41.1 µM in [6]. For the same compound, the TGI was determined as 34.9 µM in experiment [7], 28.8 µM in [8], 29.3 µM in [9] and 31.8 µM in [11].

Consider `O=C(Cn1c(=O)oc2ccc(C(=O)c3cccc(Cl)c3)cc21)c1ccccc1`, for which the TGI in experiment [1] was more than 100 µM; in experiment [12], more than 100 µM; in [3] it was more than 100 µM; in experiment [4] it was 78.6 µM; in experiment [5], more than 100 µM; in [6] it was more than 100 µM. The TGI in experiment [7], in experiment [8] and in [10] was more than 100 µM throughout.

For `CCN(CCC#N)C(=O)Nc1ccccc1`, the TGI in [1], in [12], in experiment [2], in [3], in [4] and in experiment [5] was more than 100 µM each time. Moreover, the TGI in experiment [6], in experiment [7], in [8], in experiment [9] and in experiment [11] was more than 100 µM in each case.

On to `CC1=C(C(=O)NCc2ccccc2)C(c2ccco2)C(C(=O)NCc2ccccc2)=C(C)N1`, for which the TGI in experiment [1], in experiment [2], in [3], in [4], in experiment [5] and in experiment [6] was more than 100 µM each time. Also, the TGI in experiment [7], in experiment [8] and in experiment [10] was more than 100 µM throughout.

In the case of `Cc1ccc(C(=O)N/N=C(\N=Nc2ccccc2C(=O)O)c2ccc(N(C)C)cc2)cc1`, the TGI in [1], in [12], in experiment [2], in [3], in experiment [4] and in [5] was more than 100 µM each time. For the same compound, the TGI in experiment [6] is more than 100 µM; in experiment [8] it was more than 100 µM; in [9], 57.7 µM; in [11], more than 100 µM.

In the case of `CCCCCCCCCCOc1ccc(N=Nc2nnc(-c3ccc(OCCCCC)cc3)s2)cc1`, the TGI in experiment [1], in experiment [12], in experiment [2], in experiment [3], in [4] and in experiment [5] was more than 100 µM each time. The TGI in experiment [6], in experiment [7], in experiment [8], in experiment [9] and in [11] was more than 100 µM throughout.

For `CN1C/C(=C\c2cccs2)C(=O)/C(=C/c2cccs2)C1`, the TGI is more than 100 µM in [1]; 94.5 µM in experiment [12]; more than 100 µM in experiment [2]; 67.3 µM in experiment [3]; 45.5 µM in experiment [4]; more than 100 µM in [5]. Besides, the TGI is more than 100 µM in experiment [6]; 66.1 µM in experiment [7]; 75.8 µM in experiment [8]; 61.7 µM in [9]; 49.2 µM in experiment [11].

Take `O=C(NNc1nc(-c2ccccc2)cs1)Nc1ccccc1`: the TGI in experiment [1] was 38.2 µM; in experiment [12] it was 45.8 µM; in [2], more than 100 µM; in experiment [4] it was 70.6 µM; in [6] it was more than 100 µM; in experiment [7], more than 100 µM. The TGI is more than 100 µM in experiment [8], 65.8 µM in [9] and 85 µM in [11].

In the case of `Cc1ccc2c(=O)cc(-c3cccc(F)c3)[nH]c2n1`, the TGI in experiment [1] was 2.16 µM; in experiment [3] it was more than 100 µM; in experiment [4], 0.401 µM; in experiment [5], 0.0504 µM; in experiment [6], more than 100 µM; in experiment [7], more than 100 µM. In addition, the TGI in experiment [8] was more than 100 µM; in experiment [9] it was 0.0362 µM; in experiment [11] it was more than 100 µM.

Consider `COC(=O)C(CNC(=O)/C=C/c1ccc(OC(C)=O)c(OC(C)=O)c1)NC(=O)/C=C/c1ccc(OC(C)=O)c(OC(C)=O)c1` (configuration not stated), for which the TGI in experiment [1], in [2], in experiment [3], in [4], in experiment [5] and in experiment [6] was more than 100 µM throughout. Besides, the TGI in experiment [7], in experiment [8], in experiment [9], in experiment [10] and in experiment [11] was more than 100 µM each time.

Regarding `Nc1ncc2c(n1)-c1ccccc1OC2`, the TGI in experiment [1], in experiment [12], in experiment [2], in experiment [3], in experiment [4] and in experiment [5] was more than 100 µM throughout. In [8], this compound registered a TGI of more than 100 µM.

`Clc1ncnc2c1nc(C#Cc1ccccc1)n2C1CCCCO1` (configuration not stated): the TGI in [1] amounted to 5.06 µM; in experiment [12] it was 7.01 µM; in [2] it was 6.22 µM; in experiment [3], 3.83 µM; in experiment [4], 3.54 µM; in experiment [5], 3.65 µM. For the same compound, the TGI in experiment [6] was determined as 3.91 µM; in [7], 3.06 µM; in experiment [8] it was 3.67 µM; in experiment [9] it was 8.12 µM; in [11], 3.64 µM.

Consider `CCOC(=O)C1=C(C)N(Cc2ccccc2)C2(O)C(OC)CC(=O)C3C(=O)N(c4ccccc4)C(=O)C132` (configuration not stated), for which the TGI in experiment [1] is 37.1 µM; in experiment [12] it was more than 100 µM; in experiment [2] it was 37.6 µM; in [3], 44.5 µM; in [4], 53.5 µM; in experiment [5], 26.3 µM. Further, the TGI in experiment [6] is 64.8 µM; in experiment [7], 48.4 µM; in [8] it was 60 µM; in experiment [10], 86.8 µM; in experiment [11] it was more than 100 µM.

For the compound `Cc1oc2nc(N(C)C)n3cnnc3c2c1C`, the TGI in experiment [1], in experiment [12], in experiment [2], in [3], in [4] and in experiment [5] was more than 100 µM each time. The TGI in [6], in experiment [7], in [8], in experiment [10] and in experiment [11] was more than 100 µM each time.

`COc1cc(-c2nc(SC)nc3c2CCc2ccccc2-3)cc(OC)c1OC`: the TGI in [1], in experiment [12], in experiment [2], in experiment [3], in [4] and in experiment [7] was more than 100 µM in each case. In addition, the figures for the TGI in experiment [8] and in [11] were 92.8 µM and more than 100 µM, respectively.

Consider `N=C(N)c1ccc(-c2ccc(-c3ccc(Cl)cc3Cl)s2)nc1`, for which the GI50 was 1.77 µM in experiment [1]; 1.88 µM in experiment [12]; 1.76 µM in experiment [3]; 1.74 µM in experiment [4]; 2.19 µM in [5]; 1.71 µM in experiment [6]. The GI50 in experiment [7] was 1.77 µM; in experiment [8] it was 2.47 µM. Further, the TGI in [1] was 3.24 µM; in [12], 3.64 µM; in [3], 4 µM; in experiment [4], 3.17 µM; in experiment [5], 4.88 µM; in experiment [6] it was 3.1 µM. Further, the TGI was 3.16 µM in [7] and 6.56 µM in experiment [8].

With `CSc1nc(-c2ccccc2)nc(=[N+]2CCOCC2)s1`, the TGI is more than 100 µM in experiment [1]; more than 100 µM in experiment [2]; more than 100 µM in [4]; 84.1 µM in experiment [5]; more than 100 µM in [7]; more than 100 µM in experiment [8]. The TGI was 67.5 µM in experiment [10] and more than 100 µM in experiment [11].

Regarding `NNS(=O)(=O)c1ccc(/C=C2\NC(=O)NC2=O)cc1`, the TGI in [1], in experiment [12], in [2], in [3], in experiment [4] and in [6] was more than 100 µM in each case. The TGI in [7], in experiment [8], in experiment [9] and in experiment [11] was more than 100 µM each time.

`Cc1cc(S(=O)(=O)Nc2n[nH]c(Nc3ccccc3)n2)c(SSc2cc(Cl)c(C)cc2S(=O)(=O)Nc2n[nH]c(Nc3ccccc3)n2)cc1Cl`: the TGI in experiment [1], in [12], in experiment [2], in experiment [6], in [7] and in experiment [8] was more than 100 µM in each case. Besides, the TGI in experiment [9] and in experiment [10] was more than 100 µM each time.

Turning to `CCCCCCCCCCCCCCCCCCNc1nc(=O)n(C2CC(OP(=O)(O)OCC3OC(n4cc(F)c(=O)[nH]c4=O)CC3O)C(CO)O2)cc1F` (configuration not stated), the TGI in [1] was more than 100 µM; in [12] it was more than 100 µM; in experiment [2] it was 30.3 µM; in experiment [3], more than 100 µM; in experiment [4], 52.9 µM; in experiment [5], more than 100 µM. In addition, the TGI in [6] is more than 100 µM; in [7] it was more than 100 µM; in experiment [8], more than 100 µM; in [10], 35.1 µM; in experiment [11] it was more than 100 µM.
